Assay results taken from patent publication US8247211B2, “Glycopeptide antibiotics” (American Cyanamid Company, priority 2001, dated 2012).
Values after ≈ are worked out from the molar mass of the structure shown.

How the values were obtained:
[1] = tested on: Escherichia coli; assay: In vitro antibacterial evaluation: minimum inhibitory concentration (MIC), broth dilution method; assay type: cell-based; details: strain GC 4560
Method in brief: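 NCCLS M7-A2 broth dilution; Muller-Hinton II […]; 5×10^5 CFU/mL; 64-0.06 μg/mL. MIC = lowest concentration with no growth.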

[2] = tested on: Enterococcus sp.; assay: as above; assay type: cell-based
Method in brief: (§1)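 NCCLS M7-A2 broth dilution with Mueller-Hinton II, testing 64-0.06 μg/mL antibiotic against 5×10^5 CFU/mL inocula. Test strains include recent methicillin-, penicillin- or vancomycin-resistant clinical isolates. MIC is the lowest concentration preventing growth.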

[3] = tested on: Streptococcus sp.; assay: as above; assay type: cell-based
Method in brief: as §1

[4] = tested on: Staphylococcus aureus-SMITH (GC 4543); assay: Acute lethal infection in mice (ED50); assay type: in vivo; details: female CD-1 mice, intraperitoneal challenge, intravenous dose 30 min. after infection, 7 day survival ratios
Method in brief: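 Lethal systemic infection model: female CD-1 mice, 20 ± 1-2 g, intraperitoneal challenge. Single intravenous treatment 30 min after infection; 7-day survival, pooled from 3 tests, gives ED50.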

[5] = Anatomic pathology (heart and kidney histopathology) in mice; assay type: in vivo, CD-1 mice; details: 20 mg/kg intravenously daily for 9 days, microscopic histopathology on day 10
Method in brief: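 Juvenile CD-1 mice (20 days old; 5 vehicle, 5 treated) received glycopeptide antibiotic 20 mg/kg i.v. daily for 9 days. Necropsied tissues formalin-fixed, paraffin-embedded, H&E stained and examined microscopically; findings graded slight to severe versus controls.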

CC(c1ccccc1)C1NC(=O)CNC(=O)C(CO)NC(=O)C(C(O)C2CN(CCCCCCCCCCC(=O)O)C(=N)N2C2OC(CO)C(O)C(O)C2O)NC(=O)C(C(O)C2CNC(=N)N2)NC(=O)C(Cc2ccc(OC3OC(CO)C(OC4OC(CO)C(O)C(O)C4O)C(O)C3O)cc2)NC1=O (stereo not drawn) [Example 72, Cyclo[glycyl-β-methylphenylalanyl-O-(4-O-hexopyranosylhexopyranosyl)tyrosyl-3-(2-iminoimidazolidin-4-yl)seryl-3-[1-(10-carboxydecyl)-3-hexopyranosyl-2-iminoimidazolidin-4-yl]serylseryl]]
MIC Escherichia coli (GC 4560) [1]: 32 mg/L (≈ 21.6 µM)
MIC Enterococcus faecalis (GC 4553) ([2]; strain GC 4553): 64 mg/L (≈ 43.3 µM)
MIC Enterococcus avium (GC 4558) ([2]; strain GC 4558): 64 mg/L (≈ 43.3 µM)
MIC Streptococcus pneumoniae (ATCC 6301) ([3]; Streptococcus pneumoniae (ATCC 6301), broth dilution, 18 hours at 35° C.): 64 mg/L (≈ 43.3 µM)
MIC Streptococcus pneumoniae (GC 1894) ([3]; Streptococcus pneumoniae (GC 1894), broth dilution, 18 hours at 35° C.): 16 mg/L (≈ 10.8 µM)
MIC Streptococcus pneumoniae (GC 4565) ([3]; Streptococcus pneumoniae (GC 4565), broth dilution, 18 hours at 35° C.): 64 mg/L (≈ 43.3 µM)
MIC Streptococcus pyogenes (GC 4563) ([3]; Streptococcus pyogenes (GC 4563), broth dilution, 18 hours at 35° C.): 64 mg/L (≈ 43.3 µM)
MIC Streptococcus pneumoniae (ATCC 6301) ([3]; strain ATCC 6301): 64 mg/L (≈ 43.3 µM)
MIC Streptococcus pneumoniae (GC 1894) ([3]; strain GC 1894): 16 mg/L (≈ 10.8 µM)
MIC Streptococcus pyogenes (GC 4563) ([3]; strain GC 4563): 64 mg/L (≈ 43.3 µM)
MIC Streptococcus pneumoniae (GC 4565) ([3]; strain GC 4565): 64 mg/L (≈ 43.3 µM)
median effective dose (ED50), Staphylococcus aureus-SMITH (GC 4543) [4]: >8
Anatomical Pathology (Day 10), Heart [5]: 0
Anatomical Pathology (Day 10), Kidney [5]: ++
